Laboratory results as given in patent US9889146B2, “Benzoxaborole compounds and uses thereof” (priority 2012, dated 2018).
In brackets after ≈: the same amount, converted by molar mass. Entries after “also recorded” stand apart in the source; their conditions may differ. Read-outs that look alike come from different tables or passages of the source.

Experiments:
[1] = system: Enterobacter aerogenes (AmpC); test: microbe, parasite or virus in culture; format: cell-based; settings: Klebsiella aerogenes
S. marcescens (AmpC) = test: microbe, parasite or virus in culture; format: cell-based; settings: Serratia marcescens
[2] = system: clinical isolates from the four subjects (E. coli, P. mirabilis, K. pneumoniae); test: Resistance in clinical isolates of the phase II clinical trial; format: cell-based
Protocol: A comparative, dose-ranging study of GSK2251052 vs. imipenem-cilastatin in complicated lower urinary tract infection and pyelonephritis was undertaken with 210 targeted patients (20 actually enrolled) in a phase II clinical trial. The study was designed to determine the appropriate and safe dose for Phase III trials. Doses were 750 mg or 1500 mg twice a day, compared to an active comparator, with an independent safety review committee.
The phase II clinical trial identified four subjects who developed spontaneous resistance to GSK2251052 as evidenced by increased MICs (>32-fold) determined for the clinical isolates from the four subjects. Two of the resistant mutant strains identified were E. coli strains, one was a P. mirabilis strain, and one was a K. pneumoniae strain.

[3] = system: E. coli 1162222 (standard strain) and clinical isolate 1a of E. coli; test: Frequency of spontaneous resistance to GSK2251052 in the presence of norvaline; format: cell-based, Escherichia coli
Protocol: Clinical strains of Escherichia coli and Proteus mirabilis isolated from the above-described clinical trial study (Table 12), along with other E. coli strains were used to measure the suppression of the emergence of resistant bacterial strains in vitro and to determine the susceptibility of these GSK2251052 resistant bacterial isolates to norvaline.
GSK2251052 and norvaline were prepared at a concentration of 6.4 mg/mL (free base) in 100% DMSO and 100% water respectively, aliquoted in 0.5 mL individual stocks, and stored at −20° C. until required.
Plates were poured and left to cool and solidify.
Cultures were prepared by inoculating broth with a bacterial suspension in saline, prepared from plates derived from individual colonies. For each organism, 100 mL of CAMHB was inoculated with 5 mL of a bacterial suspension with turbidity equivalent to 0.5 McFarland. These cultures were incubated on an orbital shaker at 37° C. until the broth was visibly turbid (approximately 3 hours). Following incubation, cultures were centrifuged at 11,000 g for 10 min at 4° C. The culture media was then decanted and cell pellets were resuspended to an appropriate cell concentration in fresh CAMHB or M9. The ratio of OD625 to CFU/mL used to approximate culture size is 0.1:1.0×10^8. Targeted E. coli cell concentrations were 2×10^9 CFU/mL.
Viable counts were performed to determine the concentration of the initial test inoculum using the following steps: 1) ten-fold serial dilutions of each sample were prepared; 2) three 20 μL aliquots from wells corresponding to 10^−5, […], 10^−7 and 10^−8 dilutions were plated onto the appropriate agar plates; 3) the plates were incubated overnight at 35° C. and counts were performed at the dilution that provided distinguishable colonies; 4) an average of the three aliquots was used to determine the number of colony forming units (CFU) in the original sample.
In addition, 100 μL of each cell suspension was spread onto the surface of plates containing the appropriate multiple of MIC concentration of compound and a control agar plate containing no compound. Plates were incubated at 35° C. in ambient air.
Colonies were counted after 24, 48 and 72 hours. […] In order to confirm their resistance phenotype, the susceptibility of these isolates to the selecting agent was tested by broth microdilution methodology.
The frequency of spontaneous resistance was calculated by dividing the total number of resistant colonies growing on plates containing antibiotic by the total number of colony forming units plated. In order to confirm the resistance phenotype, the MIC of the selecting agent was determined against a representative number of colonies from each antibiotic concentration/strain combination. […] The total number of resistant colonies on the plates was extrapolated from the representative set tested.

E. coli (WT) = test: microbe, parasite or virus in culture; format: cell-based; settings: Escherichia coli, E. coli (WT)
Enterobacteriaceae = test: organism not typed; format: cell-based; settings: Enterobacteriaceae
Klebsiella spp. (KPC) = test: microbe, parasite or virus in culture; format: cell-based; settings: Klebsiella
E. coli (ESBL) = test: microbe, parasite or virus in culture; format: cell-based; settings: Escherichia coli
[4] = system: E. coli clinical isolates from subject E. coli 1; test: GSK2251052 MIC of clinical isolates, subject E. coli 1; format: cell-based; settings: Escherichia coli, read-out: GSK2251052 MIC GSK results
Protocol: The E. coli and P. mirabilis strains were cultured on Trypticase Soy Agar/5% blood plates (Becton Dickinson BBL), in cation adjusted Mueller-Hinton II Broth, or in M9 minimal salts (Becton Dickinson) broth containing 0.4% glucose and 200 uM MgSO4. L-Norvaline (Sigma-Aldrich) was prepared at a concentration of 6.4 mg/ml in […], in a final volume of approx 0.5 ml, and stored at −20° C. until required.
Minimum inhibitory concentrations (MICs) were determined using the CLSI (Clinical and Laboratory Standards Institute, formerly NCCLS) recommended broth microdilution methodology [NCCLS, 2003] using defined media.

[5] = read-out: susceptibility category of MIC90
[6] = GSK2251052 breakpoint, read-out: susceptibility category of MIC90

## NC[C@H]1OB(O)c2c(OCCCO)cccc21 [GSK2251052, (S)-3-aminomethyl-7-(3-hydroxy-propoxy)-3h-benzo[c][1,2]oxaborol-1-ol]
[1]
  MIC90: 1 µg/mL (≈ 4.22 µM)
[1]; [5]
  MIC90: < 4 µg/mL
S. marcescens (AmpC)
  MIC90: 1 µg/mL (≈ 4.22 µM)
S. marcescens (AmpC); [5]
  MIC90: < 4 µg/mL
[2]; baseline isolates tested
  rates of spontaneous resistance: ~10^−7
[2]; four subjects who developed spontaneous resistance, phase II trial
  increase of MICs in clinical isolates: > 32 fold
[3]; CAMH Agar, E. coli Isolate 1a, Norvaline 0 μg/mL
  Frequency of Resistant to GSK2251052 (4 μg/mL): 6.3 × 10^−8
[3]; CAMH Agar, E. coli Isolate 1a, Norvaline 2 μg/mL
  Frequency of Resistant to GSK2251052 (4 μg/mL): 7.6 × 10^−8
[3]; CAMH Agar, E. coli Isolate 1a, Norvaline 4 μg/mL
  Frequency of Resistant to GSK2251052 (4 μg/mL): 4.7 × 10^−8
[3]; CAMH Agar, E. coli Isolate 1a, Norvaline 8 μg/mL
  Frequency of Resistant to GSK2251052 (4 μg/mL): 6.3 × 10^−8
[3]; CAMH Agar, E. coli Isolate 1a, Norvaline 16 μg/mL
  Frequency of Resistant to GSK2251052 (4 μg/mL): 4.5 × 10^−8
[3]; CAMH Agar, E. coli Isolate 1a, Norvaline 32 μg/mL
  Frequency of Resistant to GSK2251052 (4 μg/mL): 5.0 × 10^−8
[3]; CAMH Agar, E. coli Isolate 1a, Norvaline 64 μg/mL
  Frequency of Resistant to GSK2251052 (4 μg/mL): 5.3 × 10^−8
[3]; CAMH Agar, E. coli baseline strain, Norvaline 0 μg/mL
  Frequency of Resistant to GSK2251052 (4 μg/mL): 1.2 × 10^−7
[3]; CAMH Agar, E. coli baseline strain, Norvaline 2 μg/mL
  Frequency of Resistant to GSK2251052 (4 μg/mL): 5.0 × 10^−8
[3]; CAMH Agar, E. coli baseline strain, Norvaline 4 μg/mL
  Frequency of Resistant to GSK2251052 (4 μg/mL): 1.2 × 10^−7
[3]; CAMH Agar, E. coli baseline strain, Norvaline 8 μg/mL
  Frequency of Resistant to GSK2251052 (4 μg/mL): 6.8 × 10^−8
[3]; CAMH Agar, E. coli baseline strain, Norvaline 16 μg/mL
  Frequency of Resistant to GSK2251052 (4 μg/mL): 6.1 × 10^−8
[3]; CAMH Agar, E. coli baseline strain, Norvaline 32 μg/mL
  Frequency of Resistant to GSK2251052 (4 μg/mL): 1.1 × 10^−7
[3]; CAMH Agar, E. coli baseline strain, Norvaline 64 μg/mL
  Frequency of Resistant to GSK2251052 (4 μg/mL): 9.3 × 10^−8
[3]; M9 Agar, E. coli Isolate 1a, Norvaline 0 μg/mL
  Frequency of Resistant to GSK2251052 (4 μg/mL): 3.8×10^−7
[3]; M9 Agar, E. coli Isolate 1a, Norvaline 2 μg/mL
  Frequency of Resistant to GSK2251052 (4 μg/mL): 4.8×10^−8
[3]; M9 Agar, E. coli Isolate 1a, Norvaline 4 μg/mL
  Frequency of Resistant to GSK2251052 (4 μg/mL): <1.7 × 10^−9
[3]; M9 Agar, E. coli Isolate 1a, Norvaline 8 μg/mL
  Frequency of Resistant to GSK2251052 (4 μg/mL): <1.7 × 10^−9
[3]; M9 Agar, E. coli Isolate 1a, Norvaline 16 μg/mL
  Frequency of Resistant to GSK2251052 (4 μg/mL): <1.7 × 10^−9
[3]; M9 Agar, E. coli Isolate 1a, Norvaline 32 μg/mL
  Frequency of Resistant to GSK2251052 (4 μg/mL): <1.7 × 10^−9
[3]; M9 Agar, E. coli Isolate 1a, Norvaline 64 μg/mL
  Frequency of Resistant to GSK2251052 (4 μg/mL): <1.7 × 10^−9
[3]; M9 Agar, E. coli baseline strain, Norvaline 0 μg/mL
  Frequency of Resistant to GSK2251052 (4 μg/mL): 4.9×10^−8
[3]; M9 Agar, E. coli baseline strain, Norvaline 2 μg/mL
  Frequency of Resistant to GSK2251052 (4 μg/mL): 2.8 × 10^−8
[3]; M9 Agar, E. coli baseline strain, Norvaline 4 μg/mL
  Frequency of Resistant to GSK2251052 (4 μg/mL): 2.0 × 10^−8
[3]; M9 Agar, E. coli baseline strain, Norvaline 8 μg/mL
  Frequency of Resistant to GSK2251052 (4 μg/mL): 6.0 × 10^−8
[3]; M9 Agar, E. coli baseline strain, Norvaline 16 μg/mL
  Frequency of Resistant to GSK2251052 (4 μg/mL): 3.0 × 10^−9
[3]; M9 Agar, E. coli baseline strain, Norvaline 32 μg/mL
  Frequency of Resistant to GSK2251052 (4 μg/mL): <1.0 × 10^−9
[3]; M9 Agar, E. coli baseline strain, Norvaline 64 μg/mL
  Frequency of Resistant to GSK2251052 (4 μg/mL): <1.0 × 10^−9
[3]; M9 minimal media, E. coli baseline strain, no norvaline versus >32 μg/mL
  decrease in the frequency of resistance to GSK2251052: ≥ 50 fold
[3]; M9 minimal media, E. coli clinical isolate from subject E. coli 1, no norvaline versus >4 μg/mL
  decrease in the frequency of spontaneous resistance: over 200 fold
[3]; both E. coli strains, rich media, GSK2251052 4 μg/mL, norvaline up to 64 μg/mL
  effect of norvaline on frequency of resistance in rich media: remained the same; also recorded: did not change the frequency of spontaneous resistance
[3]; minimal media, E. coli clinical isolate 1a, norvaline ≧4 μg/mL
  frequency of resistance to GSK2251052: < 1.7×10^−9
[3]; minimal media, baseline E. coli strain, norvaline at 8 μg/mL
  reduction of the appearance of mutants: 10 fold
[3]; minimal media, baseline E. coli strain, norvaline ≧32 μg/mL
  frequency of resistance to GSK2251052: < 1×10^−9
E. coli (WT); 214 isolates, read-out: MIC90
  MIC90: 1 µg/mL (≈ 4.22 µM)
E. coli (WT); [6]
  MIC90: < 4 µg/mL
Enterobacteriaceae; 2029 isolates, read-out: MIC90
  MIC90: 1 µg/mL (≈ 4.22 µM)
Enterobacteriaceae; [6]
  susceptibility category of MIC90: < 4 µg/mL
Klebsiella spp. (KPC)
  MIC90: 2 µg/mL (≈ 8.44 µM)
Klebsiella spp. (KPC); [5]
  MIC90: < 4 µg/mL
E. coli (ESBL)
  MIC90: 1 µg/mL (≈ 4.22 µM)
E. coli (ESBL); [5]
  MIC90: < 4 µg/mL
[4]; 24 h, subject E. Coli 1, day 1, first line, no LeuRS change
  MIC: 0.5 µg/mL
[4]; 24 h, subject E. Coli 1, day 1, second line, no LeuRS change
  MIC: 0.25 µg/mL
[4]; 48 h
  MIC: 16 µg/mL
[4]; 72 h
  MIC: 16 µg/mL
[4]; 96 h
  MIC: 16 µg/mL
